# Values quoted from earlier work as cited in US9910020B1, “Methods and articles for identifying objects using encapsulated perfluorocarbon tracers” (Copilot Ventures Fund III LLC, priority 2005, dated 2018).
# Legend:
# cytochrome P-450 = conditions: PFD given to rats; hepatic metabolizing enzymes
# [1] = system: cytochrome P-450 IIA1 (a.k.a. cytochrome P450b); conditions: following PFD treatment, rats; as with phenobarbital induction
# cytochrome P450 IV = conditions: following PFD treatment, rats; induced by fatty acids and perfluoronated fatty acids
# [2] = system: benzphetamine-N-demethylase; conditions: following PFD treatment, rats
# aldrin-epoxidase = conditions: following PFD treatment, rats
# [3] = system: cytochrome P-450 IIA2 (a.k.a. cytochrome P450e); conditions: following PFD treatment, rats; as with phenobarbital induction
# [4] = system: cytochrome P-450 IA1 and IA1; conditions: following PFD treatment, rats; induced by 3-methylcholanthrene-type inducers
compound,measurement,setting,value
"FC1(F)C(F)(F)C(F)(F)C2(F)C(F)(F)C(F)(F)C(F)(F)C(F)(F)C2(F)C1(F)F (stereo not shown) [PFD, perfluorodecalin]",induction of cytochrome P-450,cytochrome P-450,induce cytochrome P-450 in a manner similar to phenobarbital
same,"activity of cytochrome P-450 IIA1, increase",[1],approximately two-fold
same,activity of cytochrome P450 IV,cytochrome P450 IV,unaffected
same,activity of benzphetamine-N-demethylase,[2],increased
same,activity of aldrin-epoxidase,aldrin-epoxidase,increased
same,"activity of cytochrome P-450 IIA2, increase",[3],approximately two-fold
same,activities of cytochrome P-450 IA1 and IA1,[4],unaffected
